Laboratory results from patent publication US20250296934A1, “AZEPINOINDOLES AND METHODS OF PREPARATION THEREOF” (priority 2022, published 2025).
pEC50: −log10 of the molar value. Read-outs that look alike come from different tables or passages of the source.

How the values were obtained:
[1] = target: T1, 5-HT2C (Homo sapiens, UniProt P28335); experiment: cell-based; type: cell-based; parameters: expressed in transfected cells; host or cells: HEK293T; conditions: for pEC50: Gq dissociation BRET, HEK293T
T1 sequence (P28335 33-458): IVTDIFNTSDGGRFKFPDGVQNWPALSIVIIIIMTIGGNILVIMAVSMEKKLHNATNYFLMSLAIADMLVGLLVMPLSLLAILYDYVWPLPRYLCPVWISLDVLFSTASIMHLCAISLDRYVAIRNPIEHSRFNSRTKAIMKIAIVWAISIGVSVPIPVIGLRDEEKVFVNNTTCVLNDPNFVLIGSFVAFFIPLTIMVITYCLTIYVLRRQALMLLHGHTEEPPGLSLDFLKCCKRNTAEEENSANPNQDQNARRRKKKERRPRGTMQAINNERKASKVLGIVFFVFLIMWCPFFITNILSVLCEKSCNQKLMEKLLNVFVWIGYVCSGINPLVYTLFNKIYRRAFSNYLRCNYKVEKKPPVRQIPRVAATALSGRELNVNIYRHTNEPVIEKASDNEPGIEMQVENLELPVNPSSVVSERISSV

[2] = target: T2, 5-HT2B (Homo sapiens, UniProt P41595); experiment: 5-HT2B Gq dissociation BRET functional assay; type: cell-based; parameters: expressed in transfected cells; host or cells: HEK293T; conditions: for 5-HT2B BRET Eff: normalized to % 5-HT stimulation
Target sequence in this assay (P41595 whole entry): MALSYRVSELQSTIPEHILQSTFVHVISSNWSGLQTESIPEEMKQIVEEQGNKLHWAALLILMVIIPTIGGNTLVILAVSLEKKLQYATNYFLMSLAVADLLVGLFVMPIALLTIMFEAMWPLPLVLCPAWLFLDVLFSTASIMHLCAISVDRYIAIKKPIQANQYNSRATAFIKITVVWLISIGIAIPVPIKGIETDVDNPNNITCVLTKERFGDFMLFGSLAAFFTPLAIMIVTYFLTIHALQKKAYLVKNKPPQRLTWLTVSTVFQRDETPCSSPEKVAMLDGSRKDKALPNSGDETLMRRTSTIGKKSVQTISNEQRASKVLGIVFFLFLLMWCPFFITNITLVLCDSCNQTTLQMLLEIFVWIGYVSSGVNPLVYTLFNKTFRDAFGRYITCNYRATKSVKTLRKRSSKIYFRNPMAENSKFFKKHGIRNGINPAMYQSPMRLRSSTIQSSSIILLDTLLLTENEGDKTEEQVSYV

[3] = target: T3, 5-HT2A (Homo sapiens, UniProt P28223); experiment: 5-HT2A Gq dissociation BRET functional assay; type: cell-based; parameters: expressed in transfected cells; host or cells: HEK293T; conditions: for 5-HT2A BRET Eff: normalized to % 5-HT stimulation
[4] = system: hepatocyte; experiment: In vitro hepatocyte clearance, mouse; type: in vitro ADME; conditions: Mouse
Procedure: (§1) Additional experimentation was performed on compounds 1, W5, and A93. Table 6a, 6b and 6c summarize, among other things, the anticipated hepatic clearance of compounds 1, W5 and A93 respectively, in various species, as specified in Table 6a, 6b and 6c and as determined by calculating the in vitro hepatocyte clearance over time and scaling such rate with such species' hepatocyte count and the anticipated liver blood flow rate in such species.

[5] = In vitro hepatocyte clearance, mouse; type: in vitro ADME; conditions: Mouse hepatocytes; for half-life: read-out: In vitro T1/2; for CLint scaled: read-out: Scale-up Clint
Procedure: as §1

[6] = system: hepatocyte; experiment: In vitro hepatocyte clearance, human; type: in vitro ADME; conditions: Human
Procedure: as §1

[7] = In vitro hepatocyte clearance, human; type: in vitro ADME; conditions: Human hepatocytes; for half-life: read-out: In vitro T1/2; for CLint scaled: read-out: Scale-up Clint
Procedure: as §1

[8] = target: 5-HT7 (Homo sapiens, UniProt P34969); experiment: 5-HT receptor activity (Table 3), 5-HT7; type: cell-based
[9] = target: T3, 5-HT2A; experiment: 5-HT receptor activity (Table 3), 5-HT2A; type: cell-based; conditions: 5-HT2A, Table 3
[10] = target: T4, 5-HT1A (Homo sapiens, UniProt P08908); experiment: 5-HT receptor activity (Table 3), 5-HT1A; type: cell-based
T4 sequence (P08908 1-422): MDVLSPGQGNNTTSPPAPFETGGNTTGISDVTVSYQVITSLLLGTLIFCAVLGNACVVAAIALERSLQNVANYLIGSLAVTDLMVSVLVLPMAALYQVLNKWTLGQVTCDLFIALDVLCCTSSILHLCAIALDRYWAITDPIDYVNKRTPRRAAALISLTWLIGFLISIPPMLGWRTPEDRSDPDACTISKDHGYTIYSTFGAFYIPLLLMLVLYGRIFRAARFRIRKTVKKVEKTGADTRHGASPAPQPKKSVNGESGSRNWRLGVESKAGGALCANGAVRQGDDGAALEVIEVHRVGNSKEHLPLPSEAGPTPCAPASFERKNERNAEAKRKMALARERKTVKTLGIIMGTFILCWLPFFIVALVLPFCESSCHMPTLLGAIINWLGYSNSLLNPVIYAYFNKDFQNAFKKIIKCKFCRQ

[11] = target: 5-HT5A (Homo sapiens, UniProt P47898); experiment: 5-HT receptor activity (Table 3), 5-HT5A; type: cell-based
[12] = target: 5-HT1D (Homo sapiens, UniProt P28221); experiment: 5-HT receptor activity (Table 3), 5-HT1D; type: cell-based
[13] = target: 5-HT1E (Homo sapiens, UniProt P28566); experiment: 5-HT receptor activity (Table 3), 5-HT1E; type: cell-based
[14] = target: 5-HT6 (Homo sapiens, UniProt P50406); experiment: 5-HT receptor activity (Table 3), 5-HT6; type: cell-based
[15] = target: T5, 5-HT1F (Homo sapiens, UniProt P30939); experiment: 5-HT receptor activity (Table 3), 5-HT1F; type: cell-based
T5 sequence (P30939 1-366): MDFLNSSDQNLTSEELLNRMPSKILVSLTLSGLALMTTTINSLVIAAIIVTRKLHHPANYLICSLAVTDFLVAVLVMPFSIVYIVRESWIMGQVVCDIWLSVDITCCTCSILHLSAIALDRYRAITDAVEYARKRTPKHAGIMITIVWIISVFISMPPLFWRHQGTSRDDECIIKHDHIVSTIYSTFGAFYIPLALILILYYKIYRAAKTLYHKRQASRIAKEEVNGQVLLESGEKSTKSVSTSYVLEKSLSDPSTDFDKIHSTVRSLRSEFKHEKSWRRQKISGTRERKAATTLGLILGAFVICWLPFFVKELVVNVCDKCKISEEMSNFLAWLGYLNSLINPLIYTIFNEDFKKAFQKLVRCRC

[16] = target: 5-HT1B (Homo sapiens, UniProt P28222); experiment: 5-HT receptor activity (Table 3), 5-HT1B; type: cell-based
[17] = target: 5-HT4 (Homo sapiens, UniProt Q13639); experiment: 5-HT receptor activity (Table 3), 5-HT4; type: cell-based
[18] = target: T2, 5-HT2B; experiment: 5-HT receptor activity (Table 3), 5-HT2B; type: cell-based; conditions: 5-HT2B, Table 3
Target sequence in this assay (P41595 whole entry, species assumed): as the sequence (P41595 whole entry) above

[19] = system: mice; experiment: Head Twitch Response (HTR) in mice; type: in vivo; conditions: Mus musculus, 1 h, measured over a 60 minute interval
Procedure: Head Twitch Response (HTR) was assessed using a head-mounted neodymium magnet and a magnetometer detection coil, as described in Halberstadt et al., Psychopharmacology (Berl.), 2013, 227 (4): 727-739. Table 8 below summarizes the ED50 in head twitch (as measured over a 60 minute interval) in mice as a result of Compound 1 as compared to psilocybin.

[20] = normalized to % 5-HT stimulation

T3 sequence (P28223 whole entry): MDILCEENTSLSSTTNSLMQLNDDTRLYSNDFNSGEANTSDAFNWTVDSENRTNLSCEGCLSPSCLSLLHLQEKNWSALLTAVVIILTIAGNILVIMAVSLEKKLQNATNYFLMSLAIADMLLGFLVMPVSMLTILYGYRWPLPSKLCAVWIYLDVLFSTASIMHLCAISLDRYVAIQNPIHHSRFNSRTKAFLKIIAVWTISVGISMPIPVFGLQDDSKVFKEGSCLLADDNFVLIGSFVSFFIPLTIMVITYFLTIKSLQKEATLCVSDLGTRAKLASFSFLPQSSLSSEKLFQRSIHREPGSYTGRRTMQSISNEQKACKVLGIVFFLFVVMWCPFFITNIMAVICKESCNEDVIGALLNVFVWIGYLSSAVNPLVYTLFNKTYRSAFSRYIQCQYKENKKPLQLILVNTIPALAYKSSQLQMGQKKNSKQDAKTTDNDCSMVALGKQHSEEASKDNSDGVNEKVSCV
5-HT5A, sequence (P47898 whole entry, species assumed): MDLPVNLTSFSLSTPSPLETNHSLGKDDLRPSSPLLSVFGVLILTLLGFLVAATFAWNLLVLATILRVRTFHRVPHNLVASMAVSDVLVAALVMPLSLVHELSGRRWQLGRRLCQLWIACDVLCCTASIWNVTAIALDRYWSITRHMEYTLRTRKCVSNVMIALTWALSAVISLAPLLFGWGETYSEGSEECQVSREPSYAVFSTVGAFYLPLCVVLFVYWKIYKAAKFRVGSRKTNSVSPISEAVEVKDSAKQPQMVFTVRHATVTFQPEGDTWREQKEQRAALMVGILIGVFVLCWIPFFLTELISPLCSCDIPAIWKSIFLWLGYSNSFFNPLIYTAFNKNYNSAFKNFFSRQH
5-HT7, sequence (P34969 whole entry, species assumed): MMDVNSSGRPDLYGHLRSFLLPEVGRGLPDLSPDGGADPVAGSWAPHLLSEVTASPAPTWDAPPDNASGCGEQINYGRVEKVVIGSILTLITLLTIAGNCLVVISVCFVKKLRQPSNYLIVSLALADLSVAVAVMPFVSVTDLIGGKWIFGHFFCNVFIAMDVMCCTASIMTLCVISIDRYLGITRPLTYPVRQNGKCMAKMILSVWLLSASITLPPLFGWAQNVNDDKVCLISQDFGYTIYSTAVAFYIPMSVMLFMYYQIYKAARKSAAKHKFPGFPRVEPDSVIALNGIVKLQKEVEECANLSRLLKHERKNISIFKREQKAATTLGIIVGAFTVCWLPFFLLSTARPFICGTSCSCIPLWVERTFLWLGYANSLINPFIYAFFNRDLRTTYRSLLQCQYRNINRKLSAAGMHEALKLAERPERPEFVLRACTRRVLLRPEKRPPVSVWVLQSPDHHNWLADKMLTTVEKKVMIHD
5-HT1B, sequence (P28222 whole entry, species assumed): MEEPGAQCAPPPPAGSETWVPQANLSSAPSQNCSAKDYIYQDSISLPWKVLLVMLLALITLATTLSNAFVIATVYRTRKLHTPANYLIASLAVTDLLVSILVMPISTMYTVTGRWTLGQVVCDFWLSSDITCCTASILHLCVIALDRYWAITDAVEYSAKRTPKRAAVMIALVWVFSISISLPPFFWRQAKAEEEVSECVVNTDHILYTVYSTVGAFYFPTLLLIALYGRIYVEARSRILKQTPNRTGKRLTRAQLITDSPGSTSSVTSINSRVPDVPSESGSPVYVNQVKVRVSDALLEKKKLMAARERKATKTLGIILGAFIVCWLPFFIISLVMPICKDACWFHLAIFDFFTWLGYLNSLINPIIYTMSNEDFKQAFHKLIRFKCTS
5-HT4, sequence (Q13639 whole entry, species assumed): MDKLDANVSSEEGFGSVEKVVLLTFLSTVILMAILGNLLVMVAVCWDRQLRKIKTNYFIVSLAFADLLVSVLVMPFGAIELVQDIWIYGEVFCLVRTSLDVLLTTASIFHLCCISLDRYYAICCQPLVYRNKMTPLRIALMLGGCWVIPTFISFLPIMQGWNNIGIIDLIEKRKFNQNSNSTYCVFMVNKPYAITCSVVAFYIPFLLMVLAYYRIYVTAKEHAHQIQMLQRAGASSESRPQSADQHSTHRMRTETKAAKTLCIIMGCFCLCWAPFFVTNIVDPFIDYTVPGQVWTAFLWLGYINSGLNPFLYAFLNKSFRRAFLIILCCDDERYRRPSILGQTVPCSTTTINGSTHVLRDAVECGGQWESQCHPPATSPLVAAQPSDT
5-HT6, sequence (P50406 whole entry, species assumed): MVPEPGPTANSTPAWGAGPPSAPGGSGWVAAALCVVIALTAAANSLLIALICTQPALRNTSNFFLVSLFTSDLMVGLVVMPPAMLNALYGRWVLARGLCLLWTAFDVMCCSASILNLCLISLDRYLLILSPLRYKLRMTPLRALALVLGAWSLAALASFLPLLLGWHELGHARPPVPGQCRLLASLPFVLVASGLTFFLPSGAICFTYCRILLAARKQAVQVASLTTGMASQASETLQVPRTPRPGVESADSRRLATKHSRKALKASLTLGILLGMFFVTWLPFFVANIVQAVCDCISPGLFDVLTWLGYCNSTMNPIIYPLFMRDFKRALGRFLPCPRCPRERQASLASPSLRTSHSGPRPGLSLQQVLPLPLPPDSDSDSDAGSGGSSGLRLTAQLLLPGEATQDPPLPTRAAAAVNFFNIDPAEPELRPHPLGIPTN
5-HT1D, sequence (P28221 whole entry, species assumed): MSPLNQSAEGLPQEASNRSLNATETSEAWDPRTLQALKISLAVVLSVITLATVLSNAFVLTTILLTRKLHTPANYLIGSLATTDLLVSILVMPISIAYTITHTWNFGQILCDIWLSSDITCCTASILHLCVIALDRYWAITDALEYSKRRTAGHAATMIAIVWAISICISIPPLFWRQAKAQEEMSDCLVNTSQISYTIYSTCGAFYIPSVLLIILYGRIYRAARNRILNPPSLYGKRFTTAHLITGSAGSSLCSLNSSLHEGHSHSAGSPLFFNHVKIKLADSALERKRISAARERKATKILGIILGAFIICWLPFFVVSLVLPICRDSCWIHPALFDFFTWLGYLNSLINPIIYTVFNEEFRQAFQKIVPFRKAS
5-HT1E, sequence (P28566 whole entry, species assumed): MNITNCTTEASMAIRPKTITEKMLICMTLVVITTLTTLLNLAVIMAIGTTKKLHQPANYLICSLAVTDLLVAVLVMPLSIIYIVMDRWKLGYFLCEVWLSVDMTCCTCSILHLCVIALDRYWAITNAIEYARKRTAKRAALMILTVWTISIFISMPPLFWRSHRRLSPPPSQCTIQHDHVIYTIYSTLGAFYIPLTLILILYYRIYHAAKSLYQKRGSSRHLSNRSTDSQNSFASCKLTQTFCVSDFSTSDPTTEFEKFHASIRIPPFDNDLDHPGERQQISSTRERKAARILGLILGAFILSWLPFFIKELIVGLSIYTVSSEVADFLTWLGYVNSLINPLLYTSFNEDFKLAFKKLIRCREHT

Row | SMILES | pEC50 [1] | 5-HT2C BRET Eff [1, 20] [%] | pEC50 [2] | 5-HT2B BRET Eff [2] [%] | pEC50 [3] | 5-HT2A BRET Eff [3] [%] | further results
1 | CN1CCc2c(n(C)c3cccc(O)c23)CC1 [Cpd #64 (A96)] | 8.17 | 79 | 7.04 | 46 | 7.82 | 87 | –
2 | Oc1cccc2[nH]c3c(c12)CCNCC3 [Cpd #67 (A93)] | 8.24 | 94 | 7.25 | 57 | 8.40 | 97 | Hepatic Extraction Ratio (E) [4]: <0.26; Predicted hepatic CL [4]: <23.60 mL/min/kg; hepatocyte CLint [5]: < 2.71 µL/min/1e6 cells; half-life [5]: > 8.53 h; CLint scaled [5]: < 32 mL/min/kg; Hepatic Extraction Ratio (E) [6]: <0.25; Predicted hepatic CL [6]: <5.17 mL/min/kg; hepatocyte CLint [7]: < 2.71 µL/min/1e6 cells; half-life [7]: > 8.53 h; CLint scaled [7]: < 6.89 mL/min/kg
3 | CN1CCc2[nH]c3cccc(O)c3c2CC1 [Cpd #66 (A94)] | 7.73 | 89 | 7.32 | 28 | 8.09 | 91 | –
4 | CN(C)CCc1c[nH]c2cccc(O)c12 [psilocin, reference compound] | – | – | – | 63 | – | 82 | Eff [8]: 86%; Eff [9]: 80%; Eff [10]: 93%; Eff [11]: 48%; Eff [12]: 102%; Eff [13]: 90%; Eff [14]: 74%; Eff [15]: 93%; Eff [16]: 94%; Eff [17]: 81%; Eff [18]: 32%
5 | Cc1cc(F)c(O)c2c3c([nH]c12)CCNCC3 [Cpd #27 (A92)] | 8.55 | 101 | 7.85 | 77 | 8.21 | 97 | –
6 | Cc1ccc(O)c2c3c([nH]c12)CCN(Cc1ccccc1O)CC3 [Cpd #18 (A90)] | 7.62 | 93 | 8.57 | −2.6 | 7.51 | 76 | –
7 | Cc1ccc(O)c2c3c([nH]c12)C(C)CNCC3 (centres unmarked) [Cpd #45 (W8)] | 8.92 | 99 | 8.89 | 54 | 8.19 | 98 | –
8 | Cc1cccc2c(CCN(C)C)c[nH]c12 [7,N,N-TMT, reference compound] | – | 79 | – | 36 | – | 80 | pEC50 ([2]; Gq dissociation BRET, HEK293T, read-out: 5-HT2B BRET EC50): 7.13
9 | Cn1c2c(c3c(O)cccc31)CCNCC2 [Cpd #65 (A95)] | 8.55 | 93 | 7.39 | 70 | 8.23 | 96 | –
10 | Cc1ccc(O)c2[nH]c3c(c12)CCNCC3 [Pharm-159] | 9.77 | 99 | 8.52 | 95 | 8.46 | 96 | –
11 | CN(C)CCc1c[nH]c2cccc(OP(=O)(O)O)c12 [Psilocybin, psilocybin, reference compound] | – | – | – | – | – | – | ED50 [19]: 0.38 mg/kg
12 | Cc1ccc(O)c2c3c([nH]c12)CCN(C)CC3 [Cpd #14 (W5)] | 8.89 | 87 | 7.64 | 25 | 8.41 | 89 | Hepatic Extraction Ratio (E) [4]: 0.84; Predicted hepatic CL [4]: 75.80 mL/min/kg; hepatocyte CLint [5]: 40.7 µL/min/1e6 cells; half-life [5]: 0.568 h; CLint scaled [5]: 480 mL/min/kg; Hepatic Extraction Ratio (E) [6]: 0.13; Predicted hepatic CL [6]: 2.74 mL/min/kg; hepatocyte CLint [7]: 1.26 µL/min/1e6 cells; half-life [7]: 20.9 h; CLint scaled [7]: 3.22 mL/min/kg
13 | NCCc1c[nH]c2cccc(O)c12 [4-hydroxytryptamine, reference compound] | – | – | – | 100 | – | 100 | 5-HT2C BRET Eff [1]: 99%
